Paper PMC9582434, “Ryanodine receptor-active non-dioxin-like polychlorinated biphenyls cause neurobehavioral deficits in larval zebrafish” (Frontiers in Toxicology, 2022)
“Also recorded” adds a separate entry of the source.

Tests used:
[1] = tested on: RYR paralogs found in zebrafish skeletal muscle; test: [3H]ryanodine ligand binding assay, adult zebrafish tail muscle microsomes; settings: for Max. response SEM (%): maximum [3H]Ry binding response compared to DMSO control, mean ± SEM; for EC50: relative EC50, concentration causing half-maximum response, PCB 0.1–50 μM; for RYR activity (in words): zebrafish muscle; for EC2X: concentration causing two-fold induction in ligand binding vs DMSO control
Procedure: Sensitization of the zebrafish RYR by ortho-PCBs was measured using [^3H]ryanodine ([^3H]Ry) ligand binding assays as previously described ([Fritsch and Pessah, 2013]). Briefly, crude microsomal protein preparations were created from the tail (post dorsal fin) muscle (primarily white skeletal muscle) of six adult zebrafish (∼1 year old) that was homogenized in a buffer containing 320 mM sucrose, 5 mM HEPES, 1 mM PMSF, 10 mM NaF, 2 mM β-Glycerol, 5 mM Na4P2O7, 0.5 mM Na3VO4 and 2 μg/L leupeptin (pH 7.2). The homogenate was centrifuged at 5,000 × g (4°C) for 15 min. The pellet was re-homogenized in 5 ml homogenization buffer and centrifuged at 5,000 × g. Supernatants were combined for ultracentrifugation at 100,000 g (4°C for 1 h). The resultant pellet was re-suspended in a buffer of 320 mM sucrose and 5 mM HEPES (Sigma-Aldrich, St. Louis, MO, United States) at pH 7.2. Protein concentrations were determined in triplicate using a BCA Assay (Fisher Scientific, Waltham, MA, United States). [^3H]Ry ligand binding assays were conducted with 40 μg/ml of the crude protein homogenate in the presence of DMSO (0.5%) or 0.1–50 μM of individual PCB congeners in 0.5% DMSO. Tests were run using 5 nM [^3H]Ry (Perkin Elmer Waltham, MA, United States), 250 mM KCl, 20 mM HEPES, 15 mM NaCl, and 50 μM CaCl2 (pH 7.1) and incubated for 16 h at 25°C. Non-specific binding was determined with the addition of 10 µM ryanodine (Tocris Bioscience, Bristol, United Kingdom) and 200 μM EGTA (Sigma-Aldrich, St. Louis, MO, United States). Assays were terminated by rapid filtration through Whatman GF/B filter paper (Brandel, Gaithersburg, MD, United States) and washed with ice-cold buffer containing 140 mM KCl, 10 mM HEPES, and 0.1 mM CaCl2, pH 7.4. Bound radioligand was measured by liquid scintillation counting (Beckman Coulter, Indianapolis, IN, United States). PCB-induced [^3H]Ry binding was assessed in two different protein preparations, and each assay was run in triplicate. Individual PCB concentration-response curves were determined using non-linear regression (GraphPad Prism 6.0, GraphPad Software Inc., San Diego, CA, United States).

[2] = PCB body burden in larvae at 5 dpf by gas chromatography; format: in vivo, zebrafish; settings: for % uptake (measured uptake/theoretical uptake × 100): averaged across 0.1, 1 and 10 µM, larvae at 5 dpf; for larval body burden relative to the other tested PCBs: exposure 6 hpf to 5 dpf
Procedure: PCB body burden was assessed at 5 dpf by pressurized liquid extraction Dionex ASE200 system (Thermo Scientific, Sunnyvale, CA, United States) ([Wu et al., 2015]). Briefly, zebrafish larvae samples (n = 36–51 per sample) were mixed with diatomaceous earth (2 g) and placed in an extraction cell (33 ml) containing Florisil (60–100 mesh, 12 g, Fisher Scientific, Fair Lawn, NJ, United States). PCB 117 (100 ng) was added to each sample as surrogate recovery standard, and the cells were extracted with hexane-acetone (1:1, v/v) at 100°C and 1,500 psi (10 MPa) with preheat equilibration for 6 min, 35% of cell flush volume and 1 static cycle of 5 min. Method blanks containing only Florisil and diatomaceous earth and sample blanks with naïve (unexposed) and/or DMSO-exposed zebrafish larvae were extracted in parallel with each sample set. The extracts were concentrated to approximately 0.75 ml using a Turbo Vap II (Biotage, Charlotte, NC, United States) and transferred to glass tubes. Samples were further cleaned up, as described previously, to remove sulfur and other impurities ([Kania-Korwel et al., 2007]). All samples were spiked with PCB 204 (100 ng) as internal standard (volume corrector) prior to gas chromatographic analysis.
Analysis of PCBs was performed in the splitless mode on an Agilent 7890 gas chromatograph equipped with a ^63Ni micro electron capture detector (µECD) and a SPB-1 capillary column (length, 60 m; inner diameter, 250 μm; and 0.25 µm film thickness; Supelco, St. Louis, MO, United States) ([Wu et al., 2013]). The following temperature program was used based on a published method ([Kania-Korwel et al., 2011]): hold at 80°C for 1 min, 20°C/min to 215°C, then 0.1°C/min to 219.5°C, and 20°C/min to 280°C, then hold at 280°C for 3 min. A constant helium flow rate of 1 ml/min was used for all analyses. The injector and detector temperatures were 250°C and 300°C, respectively. The ^63Ni-μECD used for the PCB analysis was linear up to concentrations of 1,000 ng/ml for all analytes investigated (R ^2 > 0.999). The recovery of PCB 117 was 83 ± 7% (range: 71–97%). A detailed summary of the limits of detection, limits of quantification, and background levels of the analyzed PCBs is presented in Supplementary Table S1.
The neurotoxic potential of the congeners tested in this study were ranked based on the three endpoints measured in this study: RYR binding, behavior, and body burden. Congeners were ranked relative to each other for each individual endpoint from 1 (highest) to 6 (lowest), and then the three scores for each congener averaged to obtain an overall relative ranking for each congener. Ranking for RYR activation was based on EC2X values and their relative comparisons. Behavior ranking represents the total change from control for each congener across all epochs (L1, D1, L2, and D2) and all days (3, 4, and 5 dpf) tested. AUC values were normalized to the appropriate DMSO control (AUC value/DMSO). Each value was then subtracted from 1 to determine the deviation from the control values [1 − (AUC value/DMSO)]. Absolute values were combined for all concentrations of each congener across all time points (epochs and testing days). PCB body burden was ranked as the percentage uptake using the following calculation: (uptake/total PCB) × 100, where, the uptake values were the measured PCB levels in the samples, and the total PCB values were calculated using the exposure concentration (0.1, 1, or 10 μM) and volume (200 μl). The resulting values were averaged across the three assayed concentrations and rounded to the closest integer to obtain the final ranking order.

RYR = tested on: RYR; parameters: method as in Pessah et al., 2006; Holland et al., 2017a; settings: ref Pessah et al., 2006; Holland et al., 2017a; cited from earlier work

Row | SMILES | concentration failing to cause a 2-fold (EC2X) increase in channel activity [1] | Max. response SEM (%) [1] [%] | EC50 [1] [µM] | RYR activity (in words) [1] | % uptake (measured uptake/theoretical uptake × 100) [2] [%] | in vitro potency at the RYR (in words) (RYR) | EC2X [1] | maximal effect compared to the DMSO control ([1]; concentrations above 3 µM) [%] | change in RYR activity at low concentrations ([1]; concentrations below 3 µM, biphasic effect) | increase in [3H]Ry-binding ([1]; measure of channel activation) [%] | larval body burden relative to the other tested PCBs [2]
1 | Clc1ccc(-c2ccc(Cl)cc2Cl)cc1 [PCB 28] | above 10 µM | 170.60 ± 13.28 | 0.67 | limited | 4.5 | negligible | – | – | – | – | –
2 | Clc1cccc(-c2c(Cl)ccc(Cl)c2Cl)c1Cl [PCB 84] | – | 437.50 ± 35.72 | 8.97 | – | 9.2 | potent | 6.97 | 400 | significant reduction | – | –
3 | Clc1ccc(Cl)c(-c2c(Cl)ccc(Cl)c2Cl)c1 [PCB 95, 2,2',3,5',6-pentachlorobiphenyl] | – | 734.70 ± 49.87 | 3.79 | high | 7.4 | potent | 1.5 | – | – | ~800 | –
4 | Clc1cc(Cl)c(-c2ccc(Cl)c(Cl)c2Cl)cc1Cl [PCB 138] | – | 388.20 ± 74.93 | 9.6 | moderate | 13.8 | moderate | 4.18 | – | – | – | highest
5 | Clc1cc(Cl)c(-c2cc(Cl)c(Cl)cc2Cl)cc1Cl [PCB 153, 2,2',4,4',5,5'-Hexachlorobiphenyl] | – | 320.40 ± 92.18 | 4.34 | moderate | 1.4 | moderate | 3.88 | – | – | – | lowest
6 | Clc1ccc(-c2ccc(Cl)c(Cl)c2)c(Cl)c1 [PCB 66] | above 10 µM | – | > 50 | negligible; also recorded: limited | 5.6 | negligible | – | – | – | – | –
